99 molecules from ChEMBL document CHEMBL3988442, “University of Dundee, Small-Polar-MMV Screening Library” (2021) can be followed below.

Test [1] is described as follows: microbe, parasite or virus in culture. The note with it: Mycobacterium tuberculosis, 96 h, read-out: pIC50 (converted).
Test [2] can be described thus: microbe, parasite or virus in culture. As to conditions: Mycobacterium tuberculosis, 72 h, read-out: pIC50 (converted).

`N#CCCN1CCCN(c2ccc(C#N)cc2)CC1`: the IC50 in test [1] was 262 µM; in test [2], 232 µM.
Consider `Cc1occc1C(=O)NCC(CO)Cc1cccs1` (stereo unspecified), for which the IC50 in test [1] and in test [2] was > 501 µM in each case.
As to `CC(C)c1nccn1C(C)C(=O)N1CCN(c2cnccn2)CC1` (stereo unspecified), the IC50 in test [1] and in test [2] was > 50.1 µM in each case.
For the molecule `Cc1ccc(C(=O)N2CCCC(Nc3ccc(F)cc3)C2)cc1` (stereo unspecified), the IC50 in test [1] is 20.9 µM; in test [2], 18.7 µM.
With `CCCC(C)N(C)Cc1nnc(-c2ccc(Br)s2)o1` (stereo unspecified), the IC50 was 29.4 µM in test [1] and 1.85 µM in test [2].
On the same counts, the results for `CSCCC1c2nc[nH]c2CCN1Cc1[nH]c2ccc(F)cc2c1C` (stereo unspecified) are > 50.1 µM and > 50.1 µM.
Take `CCOC(=O)Cn1nnc2ccccc2c1=O`: the IC50 in test [1] and in test [2] was > 501 µM each time.
In the case of `CNC(=O)C1CCN(C(=O)CCc2cccs2)CC1`, the IC50 is 111 µM in test [1] and 38.8 µM in test [2].
On the same counts, the results for `NC(=O)c1ccccc1NC(=O)CSc1ccccn1` are > 501 µM and 116 µM.
With `CNc1nc(C(=O)NC2COc3ccccc3C2)cs1` (stereo unspecified), the IC50 in test [1] was 262 µM; in test [2], 130 µM.
On the same counts, the results for `CCc1c(C(=O)NCC(=O)OCC2CC2)cnn1-c1ccc(C)cc1` are 18.9 µM and 45.9 µM.
Turning to `NCc1ccc(OC2CCCCC2)nc1`, the IC50 in test [1] and in test [2] was > 501 µM each time.
Consider `O=C(NCCO)c1cc2c(F)cc(Br)cc2[nH]1`, for which the IC50 in test [1] is > 501 µM; in test [2], 257 µM.
With `O=C(NCC(CO)Cc1ccc(Cl)cc1)c1ccncc1Cl` (stereo unspecified), the IC50 in test [1] and in test [2] was > 50.1 µM in each case.
In the case of `CN(CCn1cnnc1)c1ccc2ccc(F)cc2n1`, the IC50 in test [1] is 259 µM; in test [2], 212 µM.
Regarding `COC(=O)CS(=O)(=O)c1ccc(C)c(Cl)c1`, the IC50 in test [1] is > 501 µM; in test [2], 249 µM.
On the same counts, the results for `c1nsnc1-c1nc(C2CCCO2)no1` (stereo unspecified) are > 501 µM and 118 µM.
As for `CCC1(CO)CCCN(C(=O)c2ccc(COC)s2)C1` (stereo unspecified), the IC50 in test [1] is 246 µM; in test [2] it was 148 µM.
On the same counts, the results for `CN1CCC(N(C)CCC(=O)N2CCC(Cc3ccc(F)cc3)CC2)C1` (stereo unspecified) are > 50.1 µM and 22 µM.
On the same counts, the results for `CC(C)Oc1ccc(CN)cc1` are > 501 µM and 284 µM.
For `CNCCc1ccccc1OC` the same measures were 124 µM and 74.4 µM.
In the case of `Nc1cc(-c2cccnc2)on1`, the IC50 was > 501 µM in test [1] and 284 µM in test [2].
On the same counts, the results for `COc1ccc(C)cc1CN1CCN(S(N)(=O)=O)CC1` are 184 µM and 65.2 µM.
Turning to `CNC(=O)COC(=O)Cc1ccc(Br)cc1`, the IC50 in test [1] and in test [2] was > 501 µM in each case.
Regarding `CCOCC(C)Nc1ccc(C)c(S(C)(=O)=O)c1` (stereo unspecified), the IC50 in test [1] is 221 µM; in test [2] it was 188 µM.
For the molecule `Cc1cc2[nH]c(O)nc2cc1NCc1ccc(F)cc1`, the IC50 in test [1] was > 50.1 µM; in test [2], 24.3 µM.
Consider `CCCN(CCC(=O)NC(=O)NC)CC1CCCCO1` (stereo unspecified), for which the IC50 in test [1] was 240 µM; in test [2], 93.8 µM.
Regarding `Cc1noc(CNC(CCO)C(C)C)n1` (stereo unspecified), the IC50 in test [1] and in test [2] was > 501 µM throughout.
`CC(C)c1ccc(S(=O)(=O)C(C)C(N)=O)cc1` (stereo unspecified): the IC50 was 190 µM in test [1] and 284 µM in test [2].
On the same counts, the results for `COc1cccc(Cl)c1CN1CCCNCC1` are 251 µM and 228 µM.
For `NCc1ccncc1OCc1ccccc1` the same measures were > 501 µM and 134 µM.
For `Cn1c(SCCCO)nnc1-c1ccccc1F` the same measures were 279 µM and 275 µM.
`Fc1ccccc1CN1CCCC2(CCN(c3ncccn3)C2)C1` (stereo unspecified): the IC50 in test [2] was 30.4 µM.
Turning to `CN1CCN(C(=O)c2cc3sccc3n2Cc2ccc(Cl)cc2)CC1`, the IC50 in test [1] is > 50.1 µM.
The same measure, in the same setting: as for `Cc1cccc(NCc2ncc(C(C)(C)C)o2)c1`, the figure is 12 µM.
On to `Cc1nc(CNC(=O)Nc2ccc3c(c2)CCCC(=O)N3)sc1C`, for which the IC50 in test [2] was > 50.1 µM.
For the molecule `Cn1ccc(CN2CCOCC23CCNCC3)n1`, the IC50 in test [1] is > 50.1 µM.
Turning to `N#CCCCn1nnnc1Cc1ccc(Br)cc1`, the IC50 in test [2] was > 50.1 µM.
On to `O=C(CCC(F)(F)F)NCC1CCCS1` (stereo unspecified), for which the IC50 in test [2] was 8.35 µM.
With `CC(C1CC1)N(C)Cc1nnc(-c2ccco2)o1` (stereo unspecified), the IC50 in test [1] is > 50.1 µM.
Consider `Cc1nnc(CN(Cc2ccccc2Br)C2CC2)o1`, for which the IC50 in test [2] is 20.1 µM.
The same measure, in the same setting: as for `CCCc1nc(CN(CCO)Cc2cc(Br)ccc2F)no1`, the figure is 18.9 µM.
`Cc1cccnc1CN(C)C(C(=O)O)c1ccc(-c2ccn[nH]2)cc1` (stereo unspecified): the IC50 in test [2] was > 50.1 µM.
Turning to `CCc1nc2c(NCC3COc4c(cccc4OC)C3)ncnc2o1` (stereo unspecified), the IC50 in test [1] is > 50.1 µM.
On to `COc1ccc(S(=O)(=O)N2CCC(Cn3ccnc3)CC2)cc1`, for which, in test [1], the IC50 is > 50.1 µM.
Consider `Cc1cc(F)ccc1CN1CCCC(O)(CN2CCCC2)C1` (stereo unspecified), for which, in test [2], the IC50 was > 50.1 µM.
On the same count and under the same terms, then `COCCN(Cc1ccccc1)Cc1nc(-c2ccsc2)no1`, with 20.5 µM.
The same measure, in the same setting: then `Cc1csc(N2CCCN(CCC(=O)NC(N)=O)CC2)n1`, with 39.4 µM.
`Cc1cc(CC(=O)NCCCc2ccncc2)on1`: the IC50 in test [2] is > 501 µM.
Still for that read-out and setting: then `O=C1N(Cc2ccc(F)cc2)CCCC12CCN(C1CCSCC1)C2` (stereo unspecified), with > 50.1 µM.
In the case of `CNS(=O)(=O)c1cccc(C(C)NCc2ccc(C)c(C)c2)c1` (stereo unspecified), the IC50 in test [1] is > 50.1 µM.
In the case of `CC(C)CN1Cc2nc(N3CCCC3)ncc2C1=O`, the IC50 in test [1] was > 50.1 µM.
Same read-out and setting: as for `Cc1cnn(-c2cccc(N3CCN(c4cc(C)nc(C)n4)CC3)n2)c1`, the figure is > 50.1 µM; as for `CC(=O)N1CCC(N2CCOC[C@H]2c2nc(-c3ccc(Cl)s3)c[nH]2)CC1`, > 50.1 µM.
Consider `CCc1nnc(CN(C)CC2CCCCC2)o1`, for which the IC50 in test [2] is > 50.1 µM.
The same measure, in the same setting: as for `COc1cnc(C2(O)CCN(C(=O)c3cccnc3)CC2)c(OC)n1`, the figure is > 50.1 µM.
For `COc1cccc(-c2cnc(CNC(C)(C)c3nc(C)cs3)o2)c1`, the IC50 in test [1] is > 50.1 µM.
As for `COc1ccc(C[C@H]2CN(C(=O)CN(C)C)CC[C@H]2OC)cc1`, the IC50 in test [1] was > 50.1 µM.
As to `c1ccc(-c2nc3c(c(NCCc4c[nH]cn4)n2)CCNC3)cc1`, the IC50 in test [2] is 10.9 µM.
On to `CN(C)c1ccc(CNC(=O)c2ccc(Cl)cc2F)cc1`, for which the IC50 in test [1] is > 50.1 µM.
Same read-out and setting: as for `CCCC1c2cccn2CCN1C(=O)Cn1cnc2sc(C)cc2c1=O` (stereo unspecified), the figure is > 50.1 µM.
For `Cc1cc(NCCN)nc(-c2ccccc2O)n1`, the IC50 in test [2] is > 50.1 µM.
For the molecule `CN1[C@H](CN2CCCC2)C[C@@H]2CN(C(=O)c3cccn3C)CC[C@@H]21`, in test [1], the IC50 was > 50.1 µM.
Still for that read-out and setting: as for `CCOCc1nnc(NCc2ccsc2)o1`, the figure is 24.8 µM; as for `COc1coc(CN2CCCC(CCc3c(F)cccc3F)C2)cc1=O` (stereo unspecified), 9.45 µM.
`CCc1c(C)nc(-n2nc(-c3cccs3)cc2N)[nH]c1=O`: the IC50 in test [2] is 44 µM.
With `CO[C@H]1C[C@@H]2CN(C(=O)Cc3ccc(C)s3)C[C@@H]2C1`, the IC50 in test [1] was > 50.1 µM.
As to `CN1CCCC1c1cc2cccnc2n1Cc1ccc(F)cc1` (stereo unspecified), in test [1], the IC50 was > 50.1 µM.
As to `Cc1noc(C[C@@H]2COC[C@H]3CN(C(=O)C4=CCCC4)C[C@@H]23)n1`, in test [2], the IC50 was > 50.1 µM.
`CC(Cn1cccn1)NS(=O)(=O)Cc1ccccc1` (stereo unspecified): the IC50 in test [2] was > 50.1 µM.
`O=C(c1nn(-c2ccccc2F)cc1O)N1CCC2(CC1)OCCO2`: the IC50 in test [1] was > 50.1 µM.
As for `NCCn1nc(C2CCN(C(=O)Cc3ccccc3)C2)c2nccnc21` (stereo unspecified), the IC50 in test [1] is > 50.1 µM.
`CCNC(=O)CCCC(=O)N1CCc2cc(Cl)cc(Cl)c2C1`: the IC50 in test [2] was > 50.1 µM.
Consider `CCSc1ncc(CN2CCN(c3ncc(C)c(N)n3)CC2)cn1`, for which the IC50 in test [1] was 20.4 µM.
On the same count and under the same terms, then `CCN(C(=O)CCCOC)C(c1ccc(Cl)cc1)c1ccccn1` (stereo unspecified), with > 50.1 µM.
As for `Cc1nc(CN2CCC(NS(C)(=O)=O)CC2)co1`, in test [2], the IC50 is > 50.1 µM.
Same read-out and setting: then `COc1cccc(CN2CCCC2c2c(C)nn(C)c2C)c1` (stereo unspecified), with 46.9 µM.
As for `N#Cc1csc(CNCCOc2ccccc2)c1`, the IC50 in test [1] was > 50.1 µM.
Same read-out and setting: then `Cc1noc(C)c1-c1cccc(C2CN(CC(=O)N(C)C)CCO2)n1` (stereo unspecified), with > 50.1 µM.
As for `Cc1cccc(-c2noc([C@@H]3Cc4nc[nH]c4CN3)n2)c1`, the IC50 in test [2] was 1.94 µM.
As for `NC1CCS(=O)(=O)c2ccc(Br)cc21` (stereo unspecified), the IC50 in test [1] is 89.1 µM.
The same measure, in the same setting: as for `CN(CCCOc1ccccc1)C(=O)c1csc(-c2nnc[nH]2)n1`, the figure is > 50.1 µM.
Consider `Cc1cccc2cc(CO)c(N3Cc4cnc(C(C)(C)C)nc4C3)nc12`, for which the IC50 in test [2] was > 50.1 µM.
In the case of `Cc1ccc(CNCC2Cn3nnc(-c4cccc(F)c4)c3CO2)o1` (stereo unspecified), in test [2], the IC50 was 8.85 µM.
Take `O=c1oc(-c2ccc(F)cc2)nn1CC1CCOC1` (stereo unspecified): in test [2], the IC50 is 34.3 µM.
Same read-out and setting: then `CCCn1cc(Cl)c(C(=O)N2C[C@@H](O)[C@H](Oc3ccccc3)C2)n1`, with > 50.1 µM.
For `Cc1nc(-c2cc(F)c3c(c2)CC(CN)O3)c[nH]1` (stereo unspecified), in test [2], the IC50 is 2.55 µM.
The same measure, in the same setting: then `COc1cc(C(=O)NCCc2ccccc2OC)on1`, with > 50.1 µM.
As to `Cc1cc2c(cc1Cl)C=CC1(CCN(CC(=O)N3CCCC3)CC1)O2`, the IC50 in test [2] is > 50.1 µM.
For `Cc1cccc(N2CCC3(CCCC(=O)N3)CC2)n1`, the IC50 in test [1] was > 50.1 µM.
For the molecule `O=C1N(c2ccccc2)C[C@H]2CN(C3CCC3)CCN12`, the IC50 in test [2] is 7.22 µM.
Turning to `CC(C)CCC(=O)NCC(=O)N1CCCCCC1c1ccco1` (stereo unspecified), the IC50 in test [1] was 6.55 µM.
In the case of `O=C1N(Cc2ccc(F)c(F)c2)CCCC12CCN(C1CCCC1)C2` (stereo unspecified), the IC50 in test [2] is > 50.1 µM.
Same read-out and setting: as for `Cc1nn(C)c2c(N3CCN(C)CC3)nc(C3CC3)nc12`, the figure is 47.6 µM; as for `Cc1cc(N2Cc3cnn(CCO)c3C2)nc(-c2ccccc2O)n1`, > 50.1 µM; as for `Cc1ccccc1NC1CCN(C(=O)CCc2ccco2)CC1`, > 50.1 µM.
In the case of `CN(C)CCN1C(=O)CCC12CCCN(C(=O)c1cccnc1)CC2` (stereo unspecified), the IC50 in test [1] is > 50.1 µM.
For `CO[C@H]1C[C@@H]2CN(C(=O)c3ccc(C)s3)C[C@@H]2C1`, the IC50 in test [1] is 22.3 µM.
As for `Cc1ccc(NC(=O)c2ncc(C(N)=O)cc2Cl)cc1F`, in test [2], the IC50 was > 50.1 µM.
